Reference: US11524966B1 (Valo Early Discovery, Inc., priority 2017, dated 2022)

Each molecule was assayed against T1, USP28 (His-tagged USP28-FL-mammalian) (Homo sapiens, UniProt Q96RU2) (assay: Ubiquitin-Rhodamine 110 Assay for USP28 Activity, Example A-1(a)). Details: Ubiquitin-Rhodamine 110 assay, Example A-1(a); read-out: USP28 A-1(a) IC50 range.
T1 construct: Expression of USP28 (1-1077)-TEV-6*His (pTT5 vector); made in house; host or cells: Expi293f cells (pTT5 vector)
T1 sequence (Q96RU2 1-1077): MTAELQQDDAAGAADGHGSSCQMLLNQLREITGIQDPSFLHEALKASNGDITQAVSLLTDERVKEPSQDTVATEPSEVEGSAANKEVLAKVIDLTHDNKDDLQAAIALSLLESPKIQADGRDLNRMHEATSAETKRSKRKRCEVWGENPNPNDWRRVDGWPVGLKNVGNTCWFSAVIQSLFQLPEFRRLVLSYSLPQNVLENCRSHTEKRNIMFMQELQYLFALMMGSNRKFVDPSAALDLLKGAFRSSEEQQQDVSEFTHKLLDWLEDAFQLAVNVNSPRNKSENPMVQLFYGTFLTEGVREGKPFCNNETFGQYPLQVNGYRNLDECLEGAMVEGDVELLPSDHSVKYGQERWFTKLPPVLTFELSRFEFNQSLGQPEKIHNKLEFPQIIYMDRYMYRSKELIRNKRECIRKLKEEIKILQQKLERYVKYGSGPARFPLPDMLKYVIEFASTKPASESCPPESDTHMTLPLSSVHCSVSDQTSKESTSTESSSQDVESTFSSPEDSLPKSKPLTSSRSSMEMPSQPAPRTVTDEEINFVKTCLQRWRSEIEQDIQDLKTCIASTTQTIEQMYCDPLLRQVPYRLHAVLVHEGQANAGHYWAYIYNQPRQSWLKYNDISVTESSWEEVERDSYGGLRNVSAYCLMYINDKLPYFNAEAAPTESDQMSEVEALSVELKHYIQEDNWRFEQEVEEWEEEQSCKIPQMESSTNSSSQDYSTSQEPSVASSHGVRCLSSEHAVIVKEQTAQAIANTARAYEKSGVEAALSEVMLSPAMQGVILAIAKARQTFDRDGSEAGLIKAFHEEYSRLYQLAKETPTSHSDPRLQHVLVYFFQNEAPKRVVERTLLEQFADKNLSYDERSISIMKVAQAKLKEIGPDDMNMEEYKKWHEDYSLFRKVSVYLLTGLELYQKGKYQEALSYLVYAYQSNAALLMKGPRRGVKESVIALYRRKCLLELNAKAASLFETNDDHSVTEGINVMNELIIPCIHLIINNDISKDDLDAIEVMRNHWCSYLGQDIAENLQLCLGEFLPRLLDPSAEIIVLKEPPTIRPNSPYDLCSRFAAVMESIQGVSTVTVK
Format: biochemical
Description: Example A-1(a): Biochemical Assay: Ubiquitin-Rhodamine 110 Assay for USP28 Activity
The assay was performed in a final volume of 9 μL in assay buffer containing 20 mM Tris-HCl (pH 8.0, (1M Tris-HCl, pH 8.0 solution; Corning 46-031-CM)), 3 mM BME (2-Mercaptoethanol; Sigma 63689-25ML-F), 0.03% BGG (0.22 μM filtered, Sigma, G7516-25G), and 0.01% Triton X-100 (Sigma, T9284-10L). Nanoliter quantities of 10-point, 3-fold serial dilution in DMSO was pre-dispensed into 1536 assay plates (Corning, #3724BC) for a final test concentration of 25 μM to 1.3 nM, top to lowest dose, respectively. Enzyme USP28, construct His-tagged USP28-FL-mammalian, (protein expression and purification procedure described below). Concentration and incubation times were optimized for the maximal signal-to-background while maintaining initial velocity conditions at a fixed substrate concentration. The final concentration of the enzyme in the assay was 75 μM. Final substrate (Ub-Rh110; Ubiquitin-Rhodamine 110, UbiQ-126) concentration was 25 nM with [Ub-Rh110]<<Km. 3 μL of 2× enzyme was added to assay plates (pre-stamped with compound) preincubated with […] for 30 minutes and then 3 μL of 2×Ub-Rh110 was added to assay plates. Plates were incubated for 45 minutes at room temperature before addition of 3 μL of stop solution (final concentration of 10 mM citric acid (Sigma, 251275-500G)). Fluorescence was read on the Envision (Excitation at 485 nm and Emission at 535 nm; Perkin Elmer) or on the PheraSTAR (Excitation at 485 nm and Emission at 535 nm; BMG Labtech).
Procedure for the Protein Expression and Purification for Construct His-Tagged USP28-FL-Mammalian
Expression of USP28 (1-1077)-TEV-6*His (pTT5 vector) was carried out in Expi293f cells (sequence derived from uniprot ID: Q96RU2-1). Cells were re-suspended in lysis buffer B 50 mM Bicine, pH 8.0, 20 mM NaCl, 5% glycerol, 0.1% CHAPS, 5 mM β-ME, 1 mM PMSF, 1 ug/ml Leupeptin, 1 ug/ml Pepstatin) and lysed by sonication. Insoluble material was removed by centrifugation and the supernatant was loaded onto a Ni-NTA column (GE Healthcare) equilibrated with Ni Buffer A (50 mM Bicine, pH 8.0, 20 mM NaCl, 5% glycerol, 0.1% CHAPS, 5 mM β-ME.) and washed with Ni Buffer A+20 mM imidazole until A280 reached baseline. The protein was eluted with Ni Buffer B (50 mM Bicine, pH 8.0, 20 mM NaCl, 5% glycerol, 0.1% CHAPS, 5 mM β-ME, 300 mM imidazole.). The protein was further purified using a Superdex™ 200 10/300 GL column (GE Healthcare) equilibrated with 50 mM Bicine, pH 8.0, 20 mM NaCl, 5% glycerol, 0.1% CHAPS, 5 mM β-ME. The protein was concentrated to 2.5 mg ml^−1, flash-frozen in liquid N2 and stored at −80° C.
For assay formats Example A-1(a), A-1(b), and A-2, data were reported as percent inhibition compared with control wells based on the following equation: % inh=1−((FLU−AveLow)/(AveHigh−AveLow)) where FLU=measured Fluorescence, AveLow=average Fluorescence of no enzyme control (n=16), and AveHigh=average Fluorescence of DMSO control (n=16). IC50 values were determined by curve fitting of the standard 4 parameter logistic fitting algorithm included in the Activity Base software package: IDBS XE Designer Model 205. Data is fitted using the Levenburg Marquardt algorithm.

| Compound | IC50 [nM] |
| --- | --- |
| CO[C@@]12CCN[C@H]1CN(c1ccc3c(c1)OC[C@H](NC(=O)c1sc4nc(C)ccc4c1N)C3)C2 [Example 289, N-[(3R)-7-[(3aR,6aS)-3a-methoxy-octahydropyrrolo[2,3-c]pyrrol-5-yl]-3,4-dihydro-2H-1-benzopyran-3-yl]-3-amino-6-methylthieno[2,3-b]pyridine-2-carboxamide] | 1 to 50 |
| CO[C@]12CCN[C@@H]1CN(c1ccc3c(c1)OC[C@H](NC(=O)c1sc4nc(C)ccc4c1N)C3)C2 [Example 290, N-[(3R )-7-[(3aS,6aR)-3a-methoxy-octahydropyrrolo[2,3-c]pyrrol-5-yl]-3,4-dihydro-2H-1-benzopyran-3-yl]-3-amino-6-methylthieno[2,3-b]pyridine-2-carboxamide] | 1 to 50 |
| Cc1ccc2c(N)c(C(=O)N[C@H]3CCc4nc(N5C[C@@H]6CCN[C@H](C5)C6(F)F)ccc4C3)sc2n1 [Example 367, 3-amino-N-[(6S)-2-[(1R,5S)-9,9-difluoro-2,7-diazabicyclo[3.3.1]nonan-7-yl]-5,6,7,8-tetrahydroquinolin-6-yl]-6-methylthieno[2,3-b]pyridine-2-carboxamide] | 1 to 50 |
| Cc1ccc2c(N)c(C(=O)N[C@H]3CCc4nc(N5C[C@H]6CCN[C@@H](C5)C6(F)F)ccc4C3)sc2n1 [Example 368, 3-amino-N-[(6S)-2-[(1S,5R)-9,9-difluoro-2,7-diazabicyclo[3.3.1]nonan-7-yl]-5,6,7,8-tetrahydroquinolin-6-yl]-6-methylthieno[2,3-b]pyridine-2-carboxamide] | 1 to 50 |
| CCn1ccc2cc(C(=O)N[C@H]3CCc4nc(N5C[C@H](C(F)F)[C@@H](N)C5)ccc4C3)cnc21 [Example 370, N-[(6S)-2-[(3R,4S)-3-amino-4-(difluoromethyl)pyrrolidin-1-yl]-5,6,7,8-tetrahydroquinolin-6-yl]-1-ethyl-1H-pyrrolo[2,3-b]pyridine-5-carboxamide] | 200 to 2000 |
| CCn1ccc2cc(C(=O)N[C@H]3CCc4nc(N5C[C@@H](N)[C@H](C(F)F)C5)ccc4C3)cnc21 [Example 371, N-[(6S)-2-[(3S,4R)-3-amino-4-(difluoromethyl)pyrrolidin-1-yl]-5,6,7,8-tetrahydroquinolin-6-yl]-1-ethyl-1H-pyrrolo[2,3-b]pyridine-5-carboxamide] | 200 to 2000 |
| CC(=O)N[C@@H]1CN(c2ccc3c(n2)CC[C@H](NC(=O)c2sc4nc(C)ccc4c2N)C3)C[C@H]1C(F)F [Example 372, 3-amino-N-[(6S)-2-[(3R,4S)-3-(difluoromethyl)-4-acetamidopyrrolidin-1-yl]-5,6,7,8-tetrahydroquinolin-6-yl]-6-methylthieno[2,3-b]pyridine-2-carboxamide] | 50 to 200 |
| COCC1(N)CN(c2ccc3c(c2)OC[C@H](NC(=O)c2sc4nc(C)ccc4c2N)C3)C1 [Example 373, 3-amino-N-[(3R)-7-[3-amino-3-(methoxymethyl)azetidin-1-yl]-3,4-dihydro-2H-1-benzopyran-3-yl]-6-methylthieno[2,3-b]pyridine-2-carboxamide] | 1 to 50 |
| Cc1ccc2c(N)c(C(=O)N[C@H]3CCc4nc(N5CCN[C@H](C(F)F)C5)ccc4C3)sc2n1 [Example 374, 3-amino-N-[(6S)-2-[(3S)-3-(difluoromethyl)piperazin-1-yl]-5,6,7,8-tetrahydroquinolin-6-yl]-6-methylthieno[2,3-b]pyridine-2-carboxamide] | 50 to 200 |
| Cc1ccc2c(N)c(C(=O)N[C@H]3CCc4nc(N5CCN[C@@H](C(F)F)C5)ccc4C3)sc2n1 [Example 375, 3-amino-N-[(6S)-2-[(3R)-3-(difluoromethyl)piperazin-1-yl]-5,6,7,8-tetrahydroquinolin-6-yl]-6-methylthieno[2,3-b]pyridine-2-carboxamide] | 50 to 200 |
| CN[C@H]1CN(c2ccc3c(n2)CC[C@H](NC(=O)c2sc4nc(C)ccc4c2N)C3)C[C@@H]1C(F)F [Example 376, 3-amino-N-[(6S)-2-[(3S,4R)-3-(difluoromethyl)-4-(methylamino)pyrrolidin-1-yl]-5,6,7,8-tetrahydroquinolin-6-yl]-6-methylthieno[2,3-b]pyridine-2-carboxamide] | 50 to 200 |
| CN[C@@H]1CN(c2ccc3c(n2)CC[C@H](NC(=O)c2sc4nc(C)ccc4c2N)C3)C[C@H]1C(F)F [Example 377, 3-amino-N-[(6S)-2-[(3R,4S)-3-(difluoromethyl)-4-(methylamino)pyrrolidin-1-yl]-5,6,7,8-tetrahydroquinolin-6-yl]-6-methylthieno[2,3-b]pyridine-2-carboxamide] | 50 to 200 |
| Cc1ccc2c(N)c(C(=O)N[C@H]3COc4nc(N5C[C@H](C(F)F)[C@@H](N)C5)ccc4C3)sc2n1 [Example 378, 3-amino-N-[(3R)-7-[(3R,4S)-3-amino-4-(difluoromethyl)pyrrolidin-1-yl]-2H,3H,4H-pyrano[2,3-b]pyridin-3-yl]-6-methylthieno[2,3-b]pyridine-2-carboxamide] | 50 to 200 |
| Cc1ccc2c(N)c(C(=O)N[C@H]3COc4nc(N5C[C@@H](N)[C@H](C(F)F)C5)ccc4C3)sc2n1 [Example 379, 3-amino-N-[(3R)-7-[(3S,4R)-3-amino-4-(difluoromethyl)pyrrolidin-1-yl]-2H,3H,4H-pyrano[2,3-b]pyridin-3-yl]-6-methylthieno[2,3-b]pyridine-2-carboxamide] | 200 to 2000 |
| Cc1ccc2c(N)c(C(=O)N[C@H]3CCc4nc(N5C[C@H](C(F)F)[C@@H](N)C5)ncc4C3)sc2n1 [Example 380, 3-amino-N-[(6S)-2-[(3R,4S)-3-amino-4-(difluoromethyl)pyrrolidin-1-yl]-5,6,7,8-tetrahydroquinazolin-6-yl]-6-methylthieno[2,3-b]pyridine-2-carboxamide] | 50 to 200 |
